For this data set, the system named is GENE-TOX genotoxicity assays, various organisms and cells. Description: GENE-TOX mutagenicity studies. The note with it: for call: Assay Type: In vivo carcinogenicity studies, Assay Code: CCG+.
The mark [1] stands for this setting: Species/Cell Type: Drosophila melanogaster, Assay Type: Sex-linked recessive lethal gene mutation, Assay Code: SRL+, Evaluation Type: Evaluation A (Pre-1980).
Where [2] appears, read: Species/Cell Type: Nonhuman, Evaluation Type: Evaluation A (Pre-1980).
Setting [3] is: Species/Cell Type: Salmonella typhimurium (one or more of the five standard strains: TA98, TA100, TA1535, TA1537, and TA1538), Assay Type: Histidine reverse gene mutation, Ames assay, Assay Code: SAL+*, Activation: With metabolic activation, Evaluation Type: Evaluation A (Pre-1980).

Molecules are shown by their SMILES. Activity calls are given as the source filed them. The rule behind the calls is not given here.

`CN(C)N=O`: the mutagenic call is “active; positive” (Species/Cell Type: Arabidopsis species, Assay Type: Gene mutation, Assay Code: ARM+D, Dose Response: With dose response, Evaluation Type: Evaluation A (Pre-1980)); “active; positive” (Species/Cell Type: Chinese hamster lung (V79) cells, Assay Type: Forward gene mutation at the HPRT or ouabain locus, Assay Code: V79+, Evaluation Type: Evaluation A (Pre-1980)); “active; positive” (Species/Cell Type: Chinese hamster ovary (CHO) cells, Assay Type: Forward gene mutation at the HPRT locus, Assay Code: CHO+*, Activation: With metabolic activation, Evaluation Type: Evaluation B (Post-1980)); “active; positive” (Species/Cell Type: Chinese hamster ovary (CHO) cells, Assay Type: Forward gene mutation at the HPRT locus, Assay Code: CHO+D, Dose Response: With dose response, Evaluation Type: Evaluation A (Pre-1980)); “active; positive” under setting [1]; “active; positive” (Species/Cell Type: Drosophila melanogaster, Sex: Male, Assay Type: Heritable translocation test, chromosome aberrations, Assay Code: DHT+, Evaluation Type: Evaluation A (Pre-1980)). Further, the mutagenic call by setting is: (Species/Cell Type: Escherichia coli WP2, Assay Type: Tryptophan reverse gene mutation, Assay Code: WP2+*, Activation: With metabolic activation, Evaluation Type: Evaluation A (Pre-1980)) “active; positive”; (Species/Cell Type: Escherichia coli WP2 UVRA, Assay Type: Tryptophan reverse gene mutation, Assay Code: WPU+*, Activation: With metabolic activation, Evaluation Type: Evaluation A (Pre-1980)) “active; positive”; (Species/Cell Type: Escherichia coli polA (W3110 vs P3478), Assay Type: Rec-assay, DNA effects (bacterial DNA repair), Assay Code: RE2+, Evaluation Type: Evaluation A (Pre-1980)) “active; positive”; (Species/Cell Type: Escherichia coli polA (W3119 vs P3478), Assay Type: Rec-assay, DNA effects (bacterial DNA repair), Assay Code: RE1T, Evaluation Type: Evaluation A (Pre-1980)) “no conclusion”; (Species/Cell Type: Fischer rat embryo (RLV/1706) cells, Assay Type: Cell transformation, viral enhanced, Assay Code: CTRT, Evaluation Type: Evaluation A (Pre-1980)) “no conclusion”; (Species/Cell Type: Human diploid fibroblasts, Assay Type: Unscheduled DNA synthesis (UDS) in vitro, DNA effects, Assay Code: UDH+D, Dose Response: With dose response, Evaluation Type: Evaluation A (Pre-1980)) “active; positive”. Moreover, the mutagenic call runs as follows: (Species/Cell Type: Human lymphocytes, Assay Type: Sister-chromatid exchange (SCE) in vitro, Assay Code: SCL+D*, Activation: With metabolic activation, Dose Response: With dose response, Evaluation Type: Evaluation B (Post-1980)) “active; positive”; (Species/Cell Type: Human, Assay Type: Sister-chromatid exchange (SCE) in vitro, Assay Code: SC1+D*, Activation: With metabolic activation, Dose Response: With dose response, Evaluation Type: Evaluation B (Post-1980)) “active; positive”; (Species/Cell Type: Mammalian germ cells, Sex: Male, Assay Type: Chromosome aberrations in vivo, Assay Code: CY9-, Evaluation Type: Evaluation A (Pre-1980)) “inactive; negative”; (Species/Cell Type: Mammalian polychromatic erythrocytes, Assay Type: Micronucleus test, chromosome aberrations, Assay Code: MNT+, Evaluation Type: Evaluation A (Pre-1980)) “active; positive”; (Species/Cell Type: Mouse germ cells, Sex: Male, Assay Type: Unscheduled DNA synthesis (UDS) in vivo, DNA effects, Assay Code: UDT-, Evaluation Type: Evaluation A (Pre-1980)) “inactive; negative”; (Species/Cell Type: Mouse lymphoma (L5178Y) cells, Assay Type: Forward gene mutation at the thymidine kinase (TK) locus, chromosome aberrations, Assay Code: L51+*, Activation: With metabolic activation, Evaluation Type: Evaluation A (Pre-1980)) “active; positive”. Further, the mutagenic call was “no conclusion” (Species/Cell Type: Mouse, Sex: Female, Assay Type: Spot test, gene mutation, Assay Code: MSTT, Evaluation Type: Evaluation A (Pre-1980)); “inactive; negative” (Species/Cell Type: Mouse, Sex: Male, Assay Type: Sperm morphology, Assay Code: SPI-, Evaluation Type: Evaluation A (Pre-1980)); “active; positive” (Species/Cell Type: Neurospora crassa, Assay Type: Forward gene mutation, Assay Code: NEF+*, Activation: With metabolic activation, Evaluation Type: Evaluation A (Pre-1980)); “active; positive” (Species/Cell Type: Neurospora crassa, Assay Type: Reverse gene mutation, Assay Code: NER+, Evaluation Type: Evaluation A (Pre-1980)); “active; positive” (Species/Cell Type: Nonhuman, Assay Type: Chromosome aberrations in vitro, Assay Code: CY&+D*, Activation: With metabolic activation, Dose Response: With dose response, Evaluation Type: Evaluation A (Pre-1980)); “active; positive” (Species/Cell Type: Nonhuman, Assay Type: Sister-chromatid exchange (SCE) in vitro, Assay Code: SC2+D, Dose Response: With dose response, Evaluation Type: Evaluation A (Pre-1980)). The mutagenic call (Species/Cell Type: Nonhuman, Assay Type: Sister-chromatid exchange (SCE) in vivo, Assay Code: SC3+D, Dose Response: With dose response, Evaluation Type: Evaluation A (Pre-1980)) is “active; positive”; the mutagenic call (Species/Cell Type: Rat primary hepatocytes, Assay Type: Unscheduled DNA synthesis (UDS) in vitro, DNA effects, Assay Code: UDP+, Evaluation Type: Evaluation A (Pre-1980)) is “active; positive”; the mutagenic call (Species/Cell Type: Rodents, Sex: Male, Assay Type: Dominant lethal test, Assay Code: DLTT, Evaluation Type: Evaluation A (Pre-1980)) was “no conclusion”; the mutagenic call (Species/Cell Type: Saccharomyces cerevisiae, Assay Type: Forward gene mutation, Assay Code: YEF+*, Activation: With metabolic activation, Evaluation Type: Evaluation A (Pre-1980)) was “active; positive”; the mutagenic call (Species/Cell Type: Saccharomyces cerevisiae, Assay Type: Mitotic recombination or gene conversion, Assay Code: YEC+*, Activation: With metabolic activation, Evaluation Type: Evaluation A (Pre-1980)) was “active; positive”; the mutagenic call (Species/Cell Type: Saccharomyces cerevisiae, Assay Type: Mitotic recombination or gene conversion, Assay Code: YEH+, Evaluation Type: Evaluation A (Pre-1980)) was “active; positive”. Besides, the mutagenic call is, setting by setting: under setting [3], “active; positive”; (Species/Cell Type: Salmonella typhimurium, Escherichia coli, Neurospora crassa, Saccharomyces cerevisiae, Chinese hamster ovary (CHO) and l, Assay Type: Forward and reverse gene mutation, chromosome aberrations, mitotic recombination and gene conversion, DNA effects, host-, Assay Code: HM4+, Evaluation Type: Evaluation A (Pre-1980)) “active; positive”; (Species/Cell Type: Salmonella typhimurium, Assay Type: Forward and reverse gene mutation, body fluid assay, Assay Code: BFU+, Evaluation Type: Evaluation A (Pre-1980)) “active; positive”; (Species/Cell Type: Schizosaccharomyces pombe, Assay Type: Forward gene mutation, Assay Code: YEY+*, Activation: With metabolic activation, Evaluation Type: Evaluation A (Pre-1980)) “active; positive”; (Species/Cell Type: Syrian hamster embryo (SHE) cells, Assay Type: Cell transformation, clonal assay, Assay Code: CTCT, Evaluation Type: Evaluation A (Pre-1980)) “no conclusion”. For the same compound, under setting [2], the call is “active; positive”.
As to `c1ccc2c(c1)ccc1cc3c(ccc4ccccc43)cc12`, the mutagenic call is, setting by setting: (Species/Cell Type: Chinese hamster lung (V79) cells, Assay Type: Forward gene mutation at the HPRT or ouabain locus, Assay Code: V79+*, Activation: With metabolic activation, Evaluation Type: Evaluation A (Pre-1980)) “active; positive”; under setting [1], “active; positive”; (Species/Cell Type: Fischer rat embryo (RLV/1706) cells, Assay Type: Cell transformation, viral enhanced, Assay Code: CTR+, Evaluation Type: Evaluation A (Pre-1980)) “active; positive”; (Species/Cell Type: Fischer rat embryo (SA7/RE) cells, Assay Type: Cell transformation, viral enhanced, Assay Code: CTA+, Evaluation Type: Evaluation A (Pre-1980)) “active; positive”; (Species/Cell Type: Human diploid fibroblasts, Assay Type: Unscheduled DNA synthesis (UDS) in vitro, DNA effects, Assay Code: UDHT, Evaluation Type: Evaluation A (Pre-1980)) “no conclusion”; (Species/Cell Type: Mouse (BALB/c-3T3) cells, Assay Type: Cell transformation, Assay Code: CTB+, Evaluation Type: Evaluation A (Pre-1980)) “active; positive”. The mutagenic call is “active; positive” (Species/Cell Type: Mouse (C3H/10T1/2) cells, Assay Type: Cell transformation, Assay Code: CTH+, Evaluation Type: Evaluation A (Pre-1980)); “active; positive” (Species/Cell Type: Mouse embryo (AKR/ME) cells, Assay Type: Cell transformation, Assay Code: CTK+, Evaluation Type: Evaluation A (Pre-1980)); “no conclusion” (Species/Cell Type: Mouse prostate cells, Assay Type: Cell transformation, Assay Code: CTMT, Evaluation Type: Evaluation A (Pre-1980)); “active; positive” (Species/Cell Type: Neurospora crassa, Assay Type: Forward gene mutation, Assay Code: NEF+, Evaluation Type: Evaluation A (Pre-1980)); “no conclusion” (Species/Cell Type: Nonhuman, Assay Type: Sister-chromatid exchange (SCE) in vivo, Assay Code: SC3T, Evaluation Type: Evaluation A (Pre-1980)); “active; positive” under setting [3]. The mutagenic call reads like this: (Species/Cell Type: Syrian hamster embryo (SA7/SHE) cells, Assay Type: Cell transformation, viral enhanced, Assay Code: CT7+, Evaluation Type: Evaluation A (Pre-1980)) “active; positive”; (Species/Cell Type: Syrian hamster embryo (SHE) cells, Assay Type: Cell transformation, clonal assay, Assay Code: CTC+D, Dose Response: With dose response, Evaluation Type: Evaluation A (Pre-1980)) “active; positive”; (Species/Cell Type: Syrian hamster embryo (SHE) cells, Assay Type: Cell transformation, focus assay, Assay Code: CTF+, Evaluation Type: Evaluation A (Pre-1980)) “active; positive”. The call under setting [2] was “active; positive”.
Regarding `CN(C)C(CSC(N)=O)CSC(N)=O`, the mutagenic call by setting is: (Species/Cell Type: Mammalian polychromatic erythrocytes, Assay Type: Micronucleus test, chromosome aberrations, Assay Code: MNTT, Evaluation Type: Evaluation B (Post-1980)) “no conclusion”; (Species/Cell Type: Nonhuman bone marrow, Assay Type: Chromosome aberrations, in vivo, Assay Code: CY#-, Evaluation Type: Evaluation A (Pre-1980)) “inactive; negative”.

For the origin of these results see PubChem BioAssay AID1259408 (Genetic Toxicology Data Bank (GENE-TOX), 2018).
